Legend:
Assay in all cases: KinaseProfiler off-target kinase profiling
Format in all cases: biochemical
Details in all cases: 10 μM, ATP near Km
AKT1 = AKT1 (Homo sapiens (Human), UniProt P31749)
Summary of the method: (§1)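 Tested once at 10 μM, in two replicates, under near-Km ATP for the given kinase; result expressed as mean POC.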

AKT2 = AKT2 (Homo sapiens (Human), UniProt P31751)
Summary of the method: as §1

ALK = ALK (Homo sapiens (Human), UniProt Q9UM73)
Summary of the method: as §1

AMPK(A1/B1/G1) = AMPK(A1/B1/G1) (Homo sapiens (Human), UniProt Q13131)
Summary of the method: as §1

BLK_m = BLK_m (Mus musculus (Mouse), UniProt P16277)
BLK_m, sequence (P16277 whole entry): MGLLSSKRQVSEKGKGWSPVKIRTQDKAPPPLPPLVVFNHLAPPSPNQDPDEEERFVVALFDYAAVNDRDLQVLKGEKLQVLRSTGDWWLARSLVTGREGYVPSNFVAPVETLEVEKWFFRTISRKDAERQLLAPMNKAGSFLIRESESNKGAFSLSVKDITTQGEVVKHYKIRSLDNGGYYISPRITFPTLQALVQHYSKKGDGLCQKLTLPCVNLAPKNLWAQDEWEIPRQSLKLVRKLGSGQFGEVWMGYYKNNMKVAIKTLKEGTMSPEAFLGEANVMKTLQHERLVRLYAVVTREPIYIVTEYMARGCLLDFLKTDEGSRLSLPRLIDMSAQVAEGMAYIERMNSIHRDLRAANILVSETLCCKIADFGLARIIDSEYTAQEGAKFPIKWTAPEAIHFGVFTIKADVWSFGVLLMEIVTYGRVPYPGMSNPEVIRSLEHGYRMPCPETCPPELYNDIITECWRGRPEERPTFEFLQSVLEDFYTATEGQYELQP
Summary of the method: as §1

BTK = BTK (Homo sapiens (Human), UniProt Q06187)
Summary of the method: as §1

CDK5/p25 = CDK5/p25 (Homo sapiens (Human), UniProt Q00535)
CDK5/p25, sequence (Q00535 whole entry): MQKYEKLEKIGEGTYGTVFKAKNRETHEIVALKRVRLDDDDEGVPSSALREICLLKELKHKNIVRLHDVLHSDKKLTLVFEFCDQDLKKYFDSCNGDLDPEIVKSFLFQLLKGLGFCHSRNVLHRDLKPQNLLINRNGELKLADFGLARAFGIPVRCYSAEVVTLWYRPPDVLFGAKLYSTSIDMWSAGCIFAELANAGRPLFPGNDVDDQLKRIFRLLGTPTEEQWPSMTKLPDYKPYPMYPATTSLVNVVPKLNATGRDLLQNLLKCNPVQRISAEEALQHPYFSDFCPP
CDK5/p25, sequence (Q15078 99-307 partner): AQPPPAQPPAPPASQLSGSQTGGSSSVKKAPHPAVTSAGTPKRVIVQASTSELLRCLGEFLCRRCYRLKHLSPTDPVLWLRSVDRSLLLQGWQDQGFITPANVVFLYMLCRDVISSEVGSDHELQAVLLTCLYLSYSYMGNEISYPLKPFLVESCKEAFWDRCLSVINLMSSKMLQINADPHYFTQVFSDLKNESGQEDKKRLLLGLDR
Summary of the method: as §1

CK1gamma2 = CK1gamma2 (Homo sapiens (Human), UniProt P78368)
Summary of the method: as §1

CLK3 = CLK3 (Homo sapiens (Human), UniProt P49761)
Summary of the method: as §1

DCAMKL2 = DCAMKL2 (Homo sapiens (Human), UniProt Q8N568)
Summary of the method: as §1

DMPK = DMPK (Homo sapiens (Human), UniProt Q09013)
Summary of the method: as §1

EphA3 = EphA3 (Homo sapiens (Human), UniProt P29320)
Summary of the method: as §1

EphA8 = EphA8 (Homo sapiens (Human), UniProt P29322)
Summary of the method: as §1

EphB4 = EphB4 (Homo sapiens (Human), UniProt P54760)
EphB4, sequence (P54760 16-987): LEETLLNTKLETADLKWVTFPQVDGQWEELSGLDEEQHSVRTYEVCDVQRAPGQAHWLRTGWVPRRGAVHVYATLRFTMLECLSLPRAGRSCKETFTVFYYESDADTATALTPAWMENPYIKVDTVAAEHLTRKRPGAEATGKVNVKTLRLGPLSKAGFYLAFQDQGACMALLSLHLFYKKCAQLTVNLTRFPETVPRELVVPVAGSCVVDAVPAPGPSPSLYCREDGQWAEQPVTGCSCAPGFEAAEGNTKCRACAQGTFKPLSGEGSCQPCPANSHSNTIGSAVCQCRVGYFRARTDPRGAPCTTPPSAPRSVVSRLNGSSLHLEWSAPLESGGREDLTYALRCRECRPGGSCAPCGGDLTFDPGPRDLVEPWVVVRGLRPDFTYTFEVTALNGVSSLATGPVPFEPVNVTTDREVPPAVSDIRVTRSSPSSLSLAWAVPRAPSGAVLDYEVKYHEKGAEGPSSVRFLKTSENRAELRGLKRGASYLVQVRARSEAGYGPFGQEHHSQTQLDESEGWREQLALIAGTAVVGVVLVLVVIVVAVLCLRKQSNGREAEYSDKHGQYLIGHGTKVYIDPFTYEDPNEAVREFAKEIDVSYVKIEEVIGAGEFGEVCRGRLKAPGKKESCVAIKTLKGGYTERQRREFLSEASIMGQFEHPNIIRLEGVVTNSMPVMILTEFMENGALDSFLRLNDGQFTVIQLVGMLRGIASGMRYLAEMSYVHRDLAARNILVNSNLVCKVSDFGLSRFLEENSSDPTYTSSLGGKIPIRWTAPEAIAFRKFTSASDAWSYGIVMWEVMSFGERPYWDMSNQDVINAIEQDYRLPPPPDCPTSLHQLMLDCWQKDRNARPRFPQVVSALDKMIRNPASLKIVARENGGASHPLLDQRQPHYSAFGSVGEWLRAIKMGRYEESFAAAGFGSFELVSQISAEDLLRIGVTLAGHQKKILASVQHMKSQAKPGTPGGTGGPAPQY
Summary of the method: as §1

Flt1 = Flt1 (Homo sapiens (Human), UniProt P17948)
Summary of the method: as §1

HIPK1 = HIPK1 (Homo sapiens (Human), UniProt Q86Z02)
Summary of the method: as §1

IKKalpha = IKKalpha (Homo sapiens (Human), UniProt O15111)
Summary of the method: as §1

JAK2 = JAK2 (Homo sapiens (Human), UniProt O60674)
Summary of the method: as §1

LOK = LOK (Homo sapiens (Human), UniProt O94804)
LOK, sequence (O94804 whole entry): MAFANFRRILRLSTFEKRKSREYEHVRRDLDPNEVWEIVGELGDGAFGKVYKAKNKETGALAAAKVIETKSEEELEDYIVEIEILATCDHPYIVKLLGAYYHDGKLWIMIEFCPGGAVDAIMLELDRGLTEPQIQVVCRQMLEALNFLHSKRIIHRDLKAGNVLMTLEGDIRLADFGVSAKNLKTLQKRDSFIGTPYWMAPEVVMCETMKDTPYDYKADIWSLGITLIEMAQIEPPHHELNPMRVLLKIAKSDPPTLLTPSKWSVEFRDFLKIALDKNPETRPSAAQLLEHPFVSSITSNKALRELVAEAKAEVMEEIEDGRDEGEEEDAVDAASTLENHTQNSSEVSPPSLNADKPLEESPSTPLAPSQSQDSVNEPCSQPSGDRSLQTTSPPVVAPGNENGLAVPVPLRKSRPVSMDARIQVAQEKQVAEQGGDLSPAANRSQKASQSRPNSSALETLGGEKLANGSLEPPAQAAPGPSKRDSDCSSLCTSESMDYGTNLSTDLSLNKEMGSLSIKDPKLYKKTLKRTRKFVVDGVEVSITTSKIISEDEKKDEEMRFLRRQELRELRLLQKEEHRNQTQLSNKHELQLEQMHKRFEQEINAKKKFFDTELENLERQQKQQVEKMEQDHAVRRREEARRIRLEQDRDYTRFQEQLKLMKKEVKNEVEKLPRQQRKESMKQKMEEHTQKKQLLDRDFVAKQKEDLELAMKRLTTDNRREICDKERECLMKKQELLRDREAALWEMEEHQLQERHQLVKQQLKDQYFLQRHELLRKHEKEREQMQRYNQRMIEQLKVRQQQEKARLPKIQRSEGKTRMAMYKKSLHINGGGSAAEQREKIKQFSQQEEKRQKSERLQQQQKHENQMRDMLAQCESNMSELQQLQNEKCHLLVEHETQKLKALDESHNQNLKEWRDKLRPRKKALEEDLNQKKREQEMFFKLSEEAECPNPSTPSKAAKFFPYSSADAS
Summary of the method: as §1

MARK1 = MARK1 (Homo sapiens (Human), UniProt Q9P0L2)
Summary of the method: as §1

MEK1 = MEK1 (Homo sapiens (Human), UniProt Q02750)
Summary of the method: as §1

MKK6 = MKK6 (Homo sapiens (Human), UniProt P52564)
Summary of the method: as §1

MSK1 = MSK1 (Homo sapiens (Human), UniProt O75582)
Summary of the method: as §1

MST3 = MST3 (Homo sapiens (Human), UniProt Q9Y6E0)
Summary of the method: as §1

PKCdelta = PKCdelta (Homo sapiens (Human), UniProt Q05655)
Summary of the method: as §1

PRKG1alpha = PRKG1alpha (Homo sapiens (Human), UniProt Q13976)
PRKG1alpha, sequence (Q13976 whole entry): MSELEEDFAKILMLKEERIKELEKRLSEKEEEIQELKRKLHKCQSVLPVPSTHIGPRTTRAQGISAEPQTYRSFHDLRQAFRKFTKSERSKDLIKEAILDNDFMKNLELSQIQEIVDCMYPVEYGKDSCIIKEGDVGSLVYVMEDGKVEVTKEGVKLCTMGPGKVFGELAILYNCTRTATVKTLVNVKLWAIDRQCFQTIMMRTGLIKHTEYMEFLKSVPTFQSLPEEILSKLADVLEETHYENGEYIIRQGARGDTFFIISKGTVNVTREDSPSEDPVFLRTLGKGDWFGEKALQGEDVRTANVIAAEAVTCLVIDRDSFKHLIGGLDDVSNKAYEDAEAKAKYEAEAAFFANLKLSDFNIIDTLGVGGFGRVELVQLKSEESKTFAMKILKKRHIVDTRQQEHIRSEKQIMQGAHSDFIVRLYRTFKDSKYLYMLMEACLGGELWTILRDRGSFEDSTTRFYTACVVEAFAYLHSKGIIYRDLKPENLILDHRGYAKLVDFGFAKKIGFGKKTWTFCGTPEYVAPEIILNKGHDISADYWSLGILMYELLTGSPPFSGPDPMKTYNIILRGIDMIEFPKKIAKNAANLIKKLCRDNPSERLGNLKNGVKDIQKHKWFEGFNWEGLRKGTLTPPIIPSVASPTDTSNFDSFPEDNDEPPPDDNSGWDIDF
Summary of the method: as §1

PRKG1beta = PRKG1beta (Homo sapiens (Human), UniProt Q13976)
PRKG1beta, sequence (Q13976 other isoform, or with tags, fused parts or gaps): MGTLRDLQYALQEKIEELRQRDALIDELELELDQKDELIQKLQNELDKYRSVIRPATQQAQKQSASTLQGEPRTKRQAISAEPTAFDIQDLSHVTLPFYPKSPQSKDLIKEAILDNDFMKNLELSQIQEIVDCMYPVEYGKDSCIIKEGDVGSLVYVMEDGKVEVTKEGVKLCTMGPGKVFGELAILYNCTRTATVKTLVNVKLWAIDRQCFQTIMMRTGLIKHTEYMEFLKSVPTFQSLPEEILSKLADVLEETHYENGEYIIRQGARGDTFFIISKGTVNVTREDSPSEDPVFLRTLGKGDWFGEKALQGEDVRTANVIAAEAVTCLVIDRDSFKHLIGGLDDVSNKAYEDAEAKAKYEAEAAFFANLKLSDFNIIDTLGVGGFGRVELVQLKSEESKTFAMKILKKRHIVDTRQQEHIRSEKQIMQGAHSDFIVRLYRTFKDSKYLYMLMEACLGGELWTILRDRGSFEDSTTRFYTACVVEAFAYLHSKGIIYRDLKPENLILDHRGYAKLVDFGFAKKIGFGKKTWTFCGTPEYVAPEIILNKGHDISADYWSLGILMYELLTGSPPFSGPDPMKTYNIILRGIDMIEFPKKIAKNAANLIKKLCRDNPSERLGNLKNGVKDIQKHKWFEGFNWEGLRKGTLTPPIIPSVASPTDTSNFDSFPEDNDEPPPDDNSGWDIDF
Summary of the method: as §1

Pim-3 = Pim-3 (Homo sapiens (Human), UniProt Q86V86)
Summary of the method: as §1

Plk1 = Plk1 (Homo sapiens (Human), UniProt P53350)
Summary of the method: as §1

Plk3 = Plk3 (Homo sapiens (Human), UniProt Q9H4B4)
Summary of the method: as §1

Rsk3 = Rsk3 (Homo sapiens (Human), UniProt Q15349)
Summary of the method: as §1

SGK2 = SGK2 (Homo sapiens (Human), UniProt Q9HBY8)
Summary of the method: as §1

SRC = SRC (Homo sapiens (Human), UniProt P12931)
Summary of the method: as §1

Syk = Syk (Homo sapiens (Human), UniProt P43405)
Summary of the method: as §1

TEC Activated = TEC Activated (Homo sapiens (Human), UniProt P42680)
Summary of the method: as §1

TNK2 = TNK2 (Homo sapiens (Human), UniProt Q07912)
Summary of the method: as §1

VRK2 = VRK2 (Homo sapiens (Human), UniProt Q86Y07)
Summary of the method: as §1

WNK3 = WNK3 (Homo sapiens (Human), UniProt Q9BYP7)
Summary of the method: as §1

p38beta = p38beta (Homo sapiens (Human), UniProt Q15759)
Summary of the method: as §1

AKT1, sequence (P31749 whole entry): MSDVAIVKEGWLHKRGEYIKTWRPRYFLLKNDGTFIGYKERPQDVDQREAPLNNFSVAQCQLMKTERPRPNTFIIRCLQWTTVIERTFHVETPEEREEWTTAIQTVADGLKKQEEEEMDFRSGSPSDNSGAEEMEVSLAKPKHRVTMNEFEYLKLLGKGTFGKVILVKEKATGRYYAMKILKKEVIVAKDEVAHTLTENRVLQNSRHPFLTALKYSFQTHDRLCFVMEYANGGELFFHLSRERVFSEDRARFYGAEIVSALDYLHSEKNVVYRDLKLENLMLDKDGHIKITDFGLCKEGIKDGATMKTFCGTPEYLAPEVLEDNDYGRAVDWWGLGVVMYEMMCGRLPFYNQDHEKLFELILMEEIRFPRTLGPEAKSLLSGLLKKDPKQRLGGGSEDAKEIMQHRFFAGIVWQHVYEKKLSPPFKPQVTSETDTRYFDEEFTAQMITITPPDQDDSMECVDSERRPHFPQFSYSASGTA

Avg. POC (AKT1) | Avg. POC (AKT2) | Avg. POC (ALK) | Avg. POC (AMPK(A1/B1/G1)) | Avg. POC (BLK_m) | Avg. POC (BTK) | Avg. POC (CDK5/p25) | Avg. POC (CK1gamma2) | Avg. POC (CLK3) | Avg. POC (DCAMKL2) | Avg. POC (DMPK) | Avg. POC (EphA3) | Avg. POC (EphA8) | Avg. POC (EphB4) | Avg. POC (Flt1) | Avg. POC (HIPK1) | Avg. POC (IKKalpha) | Avg. POC (JAK2) | Avg. POC (LOK) | Avg. POC (MARK1) | other results | SMILES
130.5 POC | 132 POC | 111 POC | 152.5 POC | 126 POC | 111.5 POC | 107.5 POC | 142.5 POC | 108 POC | 157.5 POC | 105 POC | 123.5 POC | 128.5 POC | 118.5 POC | 105.5 POC | 97 POC | 141.5 POC | 233 POC | 109.5 POC | 103 POC | Avg. POC (MEK1): 100.5 POC; Avg. POC (MKK6): 130 POC; Avg. POC (MSK1): 113.5 POC; Avg. POC (MST3): 120 POC; Avg. POC (PKCdelta): 95 POC; Avg. POC (PRKG1alpha): 127.5 POC; Avg. POC (PRKG1beta): 122 POC; Avg. POC (Pim-3): 98 POC; Avg. POC (Plk1): 95 POC; Avg. POC (Plk3): 103 POC; Avg. POC (Rsk3): 106 POC; Avg. POC (SGK2): 166.5 POC; Avg. POC (SRC): 99.5 POC; Avg. POC (Syk): 115 POC; Avg. POC (TEC Activated): 153 POC; Avg. POC (TNK2): 100.5 POC; Avg. POC (VRK2): 109 POC; Avg. POC (WNK3): 109.5 POC; Avg. POC (p38beta): 113 POC | Cc1c(-c2cnn(C)c2)nn(-c2ccccc2)c1NC(=O)N[C@H]1CCCc2ccccc21 [Example 2, (S)-1-(1′,4-dimethyl-1-phenyl-1H,1′H-3,4′-bipyrazol-5-yl)-3-(1,2,3,4-tetrahydronaphthalen-1-yl)urea]
105.5 POC | 127 POC | 103 POC | 117 POC | 112 POC | 127 POC | 104 POC | 114.5 POC | 100 POC | 169 POC | 104 POC | 114.5 POC | 122.5 POC | 121 POC | 93 POC | 102.5 POC | 119.5 POC | 122.5 POC | 116 POC | 104 POC | Avg. POC (MEK1): 106.5 POC; Avg. POC (MKK6): 123 POC; Avg. POC (MSK1): 127.5 POC; Avg. POC (MST3): 131.5 POC; Avg. POC (PKCdelta): 97.5 POC; Avg. POC (PRKG1alpha): 89.5 POC; Avg. POC (PRKG1beta): 95.5 POC; Avg. POC (Pim-3): 100.5 POC; Avg. POC (Plk1): 98.5 POC; Avg. POC (Plk3): 115 POC; Avg. POC (Rsk3): 90 POC; Avg. POC (SGK2): 148 POC; Avg. POC (SRC): 97 POC; Avg. POC (Syk): 108.5 POC; Avg. POC (TEC Activated): 122.5 POC; Avg. POC (TNK2): 117.5 POC; Avg. POC (VRK2): 95 POC; Avg. POC (WNK3): 112.5 POC; Avg. POC (p38beta): 115.5 POC | Cc1c(-c2cnn(C)c2)nn(-c2ccccc2)c1NC(=O)NC1CCOc2cc(F)ccc21 (stereo not drawn) [Example 12, 1-(1′,4-dimethyl-1-phenyl-1H,1′H-[3,4′-bipyrazol]-5-yl)-3-(7-fluorochroman-4-yl)urea]
100 POC | 130 POC | 117 POC | 122.5 POC | 103.5 POC | 139 POC | 109 POC | 112.5 POC | 106 POC | 135 POC | 106 POC | 128 POC | 118.5 POC | 115 POC | 104 POC | 111 POC | 112.5 POC | 134.5 POC | 109 POC | 98.5 POC | Avg. POC (MEK1): 97 POC; Avg. POC (MKK6): 121.5 POC; Avg. POC (MSK1): 114 POC; Avg. POC (MST3): 108.5 POC; Avg. POC (PKCdelta): 105 POC; Avg. POC (PRKG1alpha): 98 POC; Avg. POC (PRKG1beta): 111.5 POC; Avg. POC (Pim-3): 98 POC; Avg. POC (Plk1): 108 POC; Avg. POC (Plk3): 119 POC; Avg. POC (Rsk3): 76.5 POC; Avg. POC (SGK2): 123.5 POC; Avg. POC (SRC): 104.5 POC; Avg. POC (Syk): 93.5 POC; Avg. POC (TEC Activated): 113.5 POC; Avg. POC (TNK2): 123 POC; Avg. POC (VRK2): 98 POC; Avg. POC (WNK3): 103.5 POC; Avg. POC (p38beta): 115.5 POC | Cc1c(-c2ccc(=O)n(C)c2)nn(-c2ccccc2)c1NC(=O)NC1CN(CC(F)(F)F)Cc2ccccc21 (stereo not drawn) [Example 26, 1-(4-methyl-3-(1-methyl-6-oxo-1,6-dihydropyridin-3-yl)-1-phenyl-1H-pyrazol-5-yl)-3-(2-(2,2,2-trifluoroethyl)-1,2,3,4-tetrahydroisoquinolin-4-yl)urea]

Reference: patent publication US10351575B2, “Bicyclic urea, thiourea, guanidine and cyanoguanidine compounds useful for the treatment of pain” (Array BioPharma Inc., priority 2012, dated 2019)
